In ChEMBL document CHEMBL5321224, “Antimicrobial peptides: Structure, mechanism, and modification” (2023):

Experiments:
Assay type in all cases: functional
Pseudomonas aeruginosa [1] = experiment: Antimicrobial activity against Pseudomonas aeruginosa KCTC 1637 measured after 18 hrs
Escherichia coli = experiment: Antimicrobial activity against Escherichia coli ATCC 33694 measured after 18 hrs
Pseudomonas aeruginosa [2] = experiment: Antimicrobial activity against Pseudomonas aeruginosa measured after 18 hrs

| Substance | LD (Pseudomonas aeruginosa [1]) | LD (Escherichia coli) | LD (Pseudomonas aeruginosa [2]) |
| --- | --- | --- | --- |
| H-KWKKLLKKPLLKKLLKKL-NH2 | 0.78 µM |  |  |
| H-KWKLFKKIGIGKFLHSAKKF-NH2 |  | 6.25 µM | 1.56 µM |
